experiment: Waters ACQUITY UPLC BEH Shield RP18, 100 × 2.1 mm, 1.7 µm, 40 °C, 0.4 mL/min, estimated dead time 0.55 min; A: water + 0.1% formic acid; B: acetonitrile; gradient (min/%B) 0/2 10/18 15/28 22/40 32/67; settings: stereoisomer not certain

Compound	LC retention time
CC(C)=CCc1c(O)cc2oc(-c3ccc(O)cc3)c(O)c(=O)c2c1O	28.1 min
CC(C)=CCc1cc(-c2oc3cc(O)cc(O)c3c(=O)c2O)ccc1O	26.1 min
CC1(C(=O)OC2OC(CO)C(O)C(O)C2O)CCC2(C)CCC3(C)C(=CC(=O)C4C5(C)CCC(OC6OC(C(=O)O)C(O)C(O)C6OC6OC(C(=O)O)C(O)C(O)C6O)C(C)(C)C5CCC43C)C2C1 (configuration not stated)	17.4 min
O=C1CC(c2ccc(O)cc2)Oc2cc(O)ccc21 (configuration not stated)	14.6 min
O=C1CC(c2ccc(OC3OC(CO)C(O)C(O)C3OC3OCC(O)(CO)C3O)cc2)Oc2cc(O)ccc21 (configuration not stated)	10.2 min
O=C(C=Cc1ccc(OC2OC(CO)C(O)C(O)C2O)cc1)c1ccc(O)cc1O (configuration not stated)	14.3 min
CC1(C(=O)O)CCC2(C)CCC3(C)C(=CC(=O)C4C5(C)CCC(O)C(C)(C)C5CCC43C)C2C1 (configuration not stated)	29.2 min
COc1ccc(-c2coc3cc(OC4OC(CO)C(O)C(O)C4O)ccc3c2=O)cc1 (configuration not stated)	12.3 min
CC1(C(=O)O)CCC2(C)CCC3(C)C(=C2C1)C=CC1C2(C)CCC(OC4OC(C(=O)O)C(O)C(O)C4OC4OC(C(=O)O)C(O)C(O)C4O)C(C)(CO)C2CCC13C (configuration not stated)	22.3 min
COc1ccc(-c2coc3cc(O)ccc3c2=O)cc1	19 min
CC1(C)C=Cc2c(ccc(-c3coc4cc(O)cc(O)c4c3=O)c2O)O1	26.9 min
COc1ccc(-c2coc3cc(OC4OC(CO)C(O)C(O)C4OC4OCC(O)(CO)C4O)ccc3c2=O)cc1 (configuration not stated)	12.2 min
O=C(C=Cc1ccc(O)cc1)c1ccc(OC2OC(CO)C(O)C(O)C2O)cc1O (configuration not stated)	14.5 min
COc1c(CC=C(C)C)c(O)cc2oc(=O)c3c4ccc(O)cc4oc3c12	27.2 min
COc1cc(O)c(-c2coc3cc(O)ccc3c2=O)c(OC)c1CC=C(C)C	24.1 min
COc1c(CC=C(C)C)c(O)cc2c1CC(c1ccc(O)c(CC=C(C)C)c1O)CO2 (configuration not stated)	28.7 min

Compound	LC retention time
CC1(C(=O)O)CCC2(C)CCC3(C)C(=CC(=O)C4C5(C)CCC(OC6OC(C(=O)O)C(O)C(O)C6OC6OC(C(=O)O)C(O)C(O)C6O)C(C)(CO)C5CCC43C)C2C1 (configuration not stated)	20.7 min
O=c1cc(-c2ccc(O)cc2)oc2c(C3OCC(O)C(O)C3O)c(O)c(C3OC(CO)C(O)C(O)C3O)c(O)c12 (configuration not stated)	8.56 min
COc1cc2oc(-c3ccc(O)c(CC=C(C)C)c3)c(O)c2cc1OC	24.8 min
CC1(CO)CC(O)C2(C)CCC3(C)C(=CC(=O)C4C5(C)CCC(OC6OC(C(=O)O)C(O)C(O)C6OC6OC(C(=O)O)C(O)C(O)C6O)C(C)(C)C5CCC43C)C2C1 (configuration not stated)	16.8 min
COc1cc(O)c2c(=O)c(OC)c(-c3ccc(O)cc3)oc2c1	15.1 min
C=CC(C)(C)c1cc(C=CC(=O)c2ccc(O)cc2)c(OC)cc1O	26.3 min
CC(=O)OC1CC(C)(C(=O)O)CC2C3=CC(=O)C4C5(C)CCC(OC6OC(C(=O)O)C(O)C(O)C6OC6OC(C(=O)O)C(O)C(O)C6O)C(C)(CO)C5CCC4(C)C3(C)CCC12C (configuration not stated)	17.8 min
CC(C)=CCc1cc(-c2cc(=O)c3c(O)cc(O)cc3o2)cc(O)c1O	24.9 min
O=C(O)CC(C(=O)O)c1ccc(O)cc1 (configuration not stated)	4.34 min
O=C(C=Cc1ccc(OC2OC(CO)C(O)C(O)C2OC2OCC(O)(CO)C2O)cc1)c1ccc(O)cc1O (configuration not stated)	14 min
O=C1CC(c2ccc(OC3OC(CO)C(O)C(O)C3O)cc2)Oc2cc(O)ccc21 (configuration not stated)	9.89 min
O=C1CC(c2ccc(O)cc2)Oc2cc(OC3OC(CO)C(O)C(O)C3O)ccc21 (configuration not stated)	9.18 min
COc1cc(O)cc2oc(=O)c(-c3ccc(O)cc3O)cc12	19.9 min
COc1ccc(-c2coc3cc(O)ccc3c2=O)cc1O	15.1 min
CC12CC(OC1=O)C1(C)CCC3(C)C(=CC(=O)C4C5(C)CCC(OC6OC(C(=O)O)C(O)C(O)C6OC6OC(C(=O)O)C(O)C(O)C6O)C(C)(C)C5CCC43C)C1C2 (configuration not stated)	19.8 min
O=C1CC(c2ccc(OC3OC(CO)C(O)C(O)C3O)cc2)Oc2cc(OC3OC(CO)C(O)C(O)C3O)ccc21 (configuration not stated)	6.01 min

Source: the RepoRT retention time repository
